Measurements reported in ChEMBL document CHEMBL4308841, “Synthesis, in vitro antiproliferative activity, and kinase inhibitory effects of pyrazole-containing diarylureas and diarylamides” (Eur J Med Chem, 2018).

Key:
CCRF-CEM = experiment: Growth inhibition of human CCRF-CEM cells incubated for 48 hrs by sulforhodamine B assay; format: functional, cell-based
HOP-62 = experiment: Growth inhibition of human HOP62 cells incubated for 48 hrs by sulforhodamine B assay; format: functional, cell-based; conditions: HOP-62, 48 h
NCI-H460 [1] = experiment: Growth inhibition of human NCI-H460 cells incubated for 48 hrs by sulforhodamine B assay; format: functional, cell-based; conditions: NCI-H460, 48 h
HCT-15 = experiment: Growth inhibition of human HCT15 cells incubated for 48 hrs by sulforhodamine B assay; format: functional, cell-based; conditions: HCT-15, 48 h
SK-MEL-5 = experiment: Growth inhibition of human SK-MEL-5 cells incubated for 48 hrs by sulforhodamine B assay; format: functional, cell-based; conditions: SK-MEL-5, 48 h
MCF7 [2] = experiment: Growth inhibition of human MCF7 cells incubated for 48 hrs by sulforhodamine B assay; format: functional, cell-based; conditions: MCF7, 48 h
MDA-MB-468 = experiment: Growth inhibition of human MDA-MB-468 cells incubated for 48 hrs by sulforhodamine B assay; format: functional, cell-based; conditions: MDA-MB-468, 48 h
A549 [3] = experiment: Growth inhibition of human A549/ATCC cells assessed as cell growth at 0.01 uM incubated for 48 hrs by sulforhodamine B assay relative to control; format: functional; conditions: A549, 48 h, read-out: Activity
NCI-H226 = experiment: Growth inhibition of human NCI-H226 cells assessed as cell growth at 0.01 uM incubated for 48 hrs by sulforhodamine B assay relative to control; format: functional; conditions: NCI-H226, 48 h, read-out: Activity
M14 = experiment: Growth inhibition of human M14 cells assessed as cell growth at 0.01 uM incubated for 48 hrs by sulforhodamine B assay relative to control; format: functional; conditions: M14, 48 h, read-out: Activity
OVCAR-4 = experiment: Growth inhibition of human OVCAR4 cells assessed as cell growth at 0.01 uM incubated for 48 hrs by sulforhodamine B assay relative to control; format: functional; conditions: OVCAR-4, 48 h, read-out: Activity
ACHN [4] = experiment: Growth inhibition of human ACHN cells assessed as cell growth at 0.01 uM incubated for 48 hrs by sulforhodamine B assay relative to control; format: functional; conditions: read-out: Activity
CAKI-1 = experiment: Growth inhibition of human Caki1 cells assessed as cell growth at 0.01 uM incubated for 48 hrs by sulforhodamine B assay relative to control; format: functional; conditions: CAKI-1, 48 h, read-out: Activity
UO-31 = experiment: Growth inhibition of human UO31 cells assessed as cell growth at 0.01 uM incubated for 48 hrs by sulforhodamine B assay relative to control; format: functional; conditions: UO-31, 48 h, read-out: Activity
PC-3 [5] = experiment: Growth inhibition of human PC3 cells assessed as cell growth at 0.01 uM incubated for 48 hrs by sulforhodamine B assay relative to control; format: functional; conditions: PC-3, 48 h, read-out: Activity
DU-145 = experiment: Growth inhibition of human DU145 cells assessed as cell growth at 0.01 uM incubated for 48 hrs by sulforhodamine B assay relative to control; format: functional; conditions: DU-145, 48 h, read-out: Activity
Hs-578T = experiment: Growth inhibition of human Hs578T cells assessed as cell growth at 0.01 uM incubated for 48 hrs by sulforhodamine B assay relative to control; format: functional; conditions: read-out: Activity
SNB-75 = experiment: Growth inhibition of human SNB75 cells assessed as cell growth at 0.1 uM incubated for 48 hrs by sulforhodamine B assay relative to control; format: functional; conditions: SNB-75, 48 h, read-out: Activity
UACC-62 = experiment: Growth inhibition of human UACC62 cells assessed as cell growth at 0.1 uM incubated for 48 hrs by sulforhodamine B assay relative to control; format: functional; conditions: UACC-62, 48 h, read-out: Activity
786-0 = experiment: Growth inhibition of human 786-0 cells assessed as cell growth at 0.1 uM incubated for 48 hrs by sulforhodamine B assay relative to control; format: functional; conditions: 786-0, 48 h, read-out: Activity
PC-3 [6] = experiment: Growth inhibition of human PC3 cells assessed as cell growth at 0.1 uM incubated for 48 hrs by sulforhodamine B assay relative to control; format: functional; conditions: PC-3, 48 h, read-out: Activity
HL-60(TB) = experiment: Growth inhibition of human HL-60(TB) cells assessed as cell growth at 1 uM incubated for 48 hrs by sulforhodamine B assay relative to control; format: functional; conditions: HL-60, 48 h, read-out: Activity
A549 [7] = experiment: Growth inhibition of human A549/ATCC cells assessed as cell growth at 1 uM incubated for 48 hrs by sulforhodamine B assay relative to control; format: functional; conditions: A549, 48 h, read-out: Activity
NCI-H460 [8] = experiment: Growth inhibition of human NCI-H460 cells assessed as cell growth at 1 uM incubated for 48 hrs by sulforhodamine B assay relative to control; format: functional; conditions: NCI-H460, 48 h, read-out: Activity
HCC 2998 = experiment: Growth inhibition of human HCC2998 cells assessed as cell growth at 1 uM incubated for 48 hrs by sulforhodamine B assay relative to control; format: functional; conditions: HCC 2998, 48 h, read-out: Activity
ACHN [9] = experiment: Growth inhibition of human ACHN cells assessed as cell growth at 1 uM incubated for 48 hrs by sulforhodamine B assay relative to control; format: functional; conditions: read-out: Activity
MCF7 [10] = experiment: Growth inhibition of human MCF7 cells assessed as cell growth at 1 uM incubated for 48 hrs by sulforhodamine B assay relative to control; format: functional; conditions: MCF7, 48 h, read-out: Activity
BT-549 = experiment: Growth inhibition of human BT549 cells assessed as cell growth at 1 uM incubated for 48 hrs by sulforhodamine B assay relative to control; format: functional; conditions: BT-549, 48 h, read-out: Activity
NCI-H23 = experiment: Growth inhibition of human NCI-H23 cells assessed as cell growth at 100 uM incubated for 48 hrs by sulforhodamine B assay relative to control; format: functional; conditions: NCI-H23, 48 h, read-out: Activity
[11] = read-out: LC50 (the source's name)
[12] = read-out: pLC50 (the source's name) (converted)

O=C(Nc1cccc(-n2cc(-c3ccncc3)c(-c3cc(O)cc(Cl)c3)n2)c1)Nc1ccc(Cl)c(Cl)c1
GI50 (CCRF-CEM; read-out: GI50): 2.12 µM | CC50 (CCRF-CEM; [11]): > 100 µM | GI50 (CCRF-CEM; read-out: pGI50 (converted)): 2.14 µM | CC50 (CCRF-CEM; [12]): > 100 µM | GI50 (HOP-62; read-out: GI50): 2.52 µM | CC50 (HOP-62; [11]): > 100 µM | TGI (HOP-62; read-out: TGI): 85.1 µM | GI50 (HOP-62; read-out: pGI50 (converted)): 2.82 µM | CC50 (HOP-62; [12]): > 100 µM | TGI (HOP-62; read-out: pTGI (converted)): 8.51 µM | GI50 (NCI-H460 [1]; read-out: GI50): 2.18 µM | CC50 (NCI-H460 [1]; [11]): > 100 µM | TGI (NCI-H460 [1]; read-out: TGI): 61.4 µM | GI50 (NCI-H460 [1]; read-out: pGI50 (converted)): 2.19 µM | CC50 (NCI-H460 [1]; [12]): > 100 µM | TGI (NCI-H460 [1]; read-out: pTGI (converted)): 6.17 µM | GI50 (HCT-15; read-out: GI50): 2.1 µM | CC50 (HCT-15; [11]): > 100 µM | TGI (HCT-15; read-out: TGI): 80.4 µM | GI50 (HCT-15; read-out: pGI50 (converted)): 2.09 µM | CC50 (HCT-15; [12]): > 100 µM | TGI (HCT-15; read-out: pTGI (converted)): 8.13 µM | GI50 (SK-MEL-5; read-out: GI50): 1.52 µM | CC50 (SK-MEL-5; [11]): 5.75 µM | TGI (SK-MEL-5; read-out: TGI): 30.4 µM | GI50 (SK-MEL-5; read-out: pGI50 (converted)): 1.62 µM | CC50 (SK-MEL-5; [12]): 5.75 µM | TGI (SK-MEL-5; read-out: pTGI (converted)): 3.02 µM | GI50 (MCF7 [2]; read-out: GI50): 2.51 µM | LC50 (MCF7 [2]; read-out: LC50): > 100 µM | TGI (MCF7 [2]; read-out: TGI): 97.4 µM | GI50 (MCF7 [2]; read-out: pGI50 (converted)): 2.82 µM | LC50 (MCF7 [2]; read-out: pLC50 (converted)): > 100 µM | TGI (MCF7 [2]; read-out: pTGI (converted)): 9.77 µM | IC50 (MDA-MB-468): 1.71 µM | GI50 (MDA-MB-468; read-out: GI50): 1.7 µM | CC50 (MDA-MB-468; [11]): > 100 µM | TGI (MDA-MB-468; read-out: TGI): 70.9 µM | GI50 (MDA-MB-468; read-out: pGI50 (converted)): 1.7 µM | CC50 (MDA-MB-468; [12]): > 100 µM | TGI (MDA-MB-468; read-out: pTGI (converted)): 7.08 µM | growth at 0.01 µM (A549 [3]): 96% | growth at 0.01 µM (NCI-H226): 94% | growth at 0.01 µM (M14): 99% | growth at 0.01 µM (OVCAR-4): 108% | growth at 0.01 µM (ACHN [4]): 91% | growth at 0.01 µM (CAKI-1): 100% | growth at 0.01 µM (UO-31): 93% | growth at 0.01 µM (PC-3 [5]): 90% | growth at 0.01 µM (DU-145): 108% | growth at 0.01 µM (Hs-578T): 98% | growth at 0.1 µM (SNB-75): 52% | growth at 0.1 µM (UACC-62): 99% | growth at 0.1 µM (786-0): 90% | growth at 0.1 µM (PC-3 [6]): 90% | growth at 1 µM (HL-60(TB)): 106% | growth at 1 µM (A549 [7]): 75% | growth at 1 µM (NCI-H460 [8]): 58% | growth at 1 µM (HCC 2998): 96% | growth at 1 µM (ACHN [9]): 79% | growth at 1 µM (MCF7 [10]): 91% | growth at 1 µM (BT-549): 89% | growth at 100 µM (NCI-H23): -35%
